Tested on: CD4+Foxp3:GFP- T cells
Experiment: In vitro conversion of CD4+Foxp3:GFP- T cells into Treg
Format: cell-based, mouse
Settings: antibodies to CD3 and CD28 in the presence of TCDD, 5 days
Experimental: CD4+ T cells were purified from Foxp3gfp knock in mice using anti-CD4 beads (Miltenyi, Auburn, Calif., USA) and sorted (FACSAria™ cell sorter, BD Biosciences) into naive CD4^+ Foxp3:GFP^− or CD4^+ Foxp3:GFP T cells. CD4^+ Foxp3:GFP^− T cells were stimulated with plate bound 1 μg/ml of anti-CD3 (145-2C11, eBioscience) and 2 μg/ml of anti-CD28 (37.51, eBioscience) for 5 days, supplemented with recombinant IL-2 (50 U/ml) at day 2 and 4, and analyzed by FACS at day 5 for their differentiation into […]. TGFβ1 (2.5 ng/ml) was used as a positive control.
To establish if TCDD triggered the conversion of CD4^+Foxp3^− T cells into new Foxp3^+ Treg cells, FACS sorted CD4^+Foxp3:GFP− T cells were activated in vitro with antibodies to CD3 and CD28 in the presence of TCDD, and the generation of CD4^+Foxp3:GFP^+ Treg was followed by FACS. TGFb1 was used as a positive control.

SMILES: Clc1cc2c(cc1Cl)Oc1cc(Cl)c(Cl)cc1O2 [TCDD, 2,3,7,8 tetrachlorodibenzo-p-dioxin]
- conversion of cells in culture into CD4+Foxp3:GFP+ Treg: approximately 13%

— patent publication US11253589B2, “Modulation of the immune response” (priority 2007, dated 2022)
